{
  "source": "patent US20200069702A1",
  "about": "“ORAL PHARMACEUTICAL COMPOSITIONS COMPRISING AN UNMICRONIZED SELECTIVE PROGESTERONE RECEPTOR AS ACTIVE AGENT” (Repros Therapeutics Inc., priority 2016, published 2020)",
  "tested_on": "uterine fibroids",
  "experiment": "Phase 2 study of orally administered Formulation B in women with uterine fibroids",
  "type": "in vivo, human",
  "excerpt": "After menses occurred, a second 18 week course of treatment followed.",
  "data": [
    {"smiles": "COCC(=O)[C@@]1(OC(C)=O)CC[C@H]2[C@@H]3CCC4=CC(=O)CCC4=C3[C@@H](c3ccc(N(C)C)cc3)C[C@@]21C", "note": "[CDB-4124, 21-methoxy-17a-acetoxy-11β-(4 N, N-dimethylaminophenyl)-19-norpregna-4,9-diene-3,20-dione]", "values": [
      {"measurement": "reduction in fibroid size (volume) compared to baseline", "setting": "oral 12 mg once per day, after two 18 week cycles, median, p=0.0004 vs placebo", "result": 64.9, "unit": "%"},
      {"measurement": "subjects who achieved amenorrhea", "setting": "oral 12 mg once per day, end of second 18 week course (36 weeks total active treatment)", "result": 100, "unit": "%"},
      {"measurement": "improvement in Uterine Fibroid Symptom Severity Score (UFSQOL), LOCF median", "setting": "oral 12 mg once per day, p=0.0211 vs placebo", "result": 70.9, "unit": "%"},
      {"measurement": "subjects who achieved amenorrhea", "setting": "vaginally treated subjects (comparison)", "result": 50, "unit": "%"}
    ]}
  ]
}
